Measurements as given in ChEMBL document CHEMBL2034892, “The relevance of higher plants in lead compound discovery programs” (J Nat Prod, 2011).
In brackets after ≈: the same amount, converted by molar mass. Values belong to the molecule of their own block, whether it stands above or below them.

Columns and labels:
[1] = tested on: HT-29; experiment: Cytotoxicity against human HT-29 cells; assay type: functional; conditions: read-out: ED50 (the source's name)
[2] = biological target: T1, Taste receptor type 2 member 31 (Homo sapiens, UniProt P59538); experiment: Inhibition of human TAS2R31 receptor expressed in HEK293T cells overexpressing chimeric G-protein alpha-subunit; assay type: cell-based, HEK-293T
T1 sequence (P59538 whole entry): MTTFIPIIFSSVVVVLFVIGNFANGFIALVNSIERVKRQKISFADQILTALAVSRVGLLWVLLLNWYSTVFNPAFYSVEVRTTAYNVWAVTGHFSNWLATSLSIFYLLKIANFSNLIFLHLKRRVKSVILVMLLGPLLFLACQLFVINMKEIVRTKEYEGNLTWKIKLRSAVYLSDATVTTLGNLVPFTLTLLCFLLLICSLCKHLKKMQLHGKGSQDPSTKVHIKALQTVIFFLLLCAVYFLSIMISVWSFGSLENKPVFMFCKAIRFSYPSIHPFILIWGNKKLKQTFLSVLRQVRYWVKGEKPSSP

[3] = Inhibition of proteasome; assay type: subcellular
[4] = tested on: P388; experiment: Antitumor activity against mouse P388 cells xenografted in mouse assessed as increase in life span at 2.5 mg/kg, ip dosed daily for 5 days; assay type: functional; conditions: route intraperitoneal
[5] = Systemic availability in ip dosed C57BL/6 mouse; assay type: ADME, organism-based; conditions: in vivo
[6] = Oral bioavailability in C57BL/6 mouse; assay type: ADME, organism-based; conditions: in vivo
[7] = tested on: P388; experiment: Antitumor activity against mouse P388 cells xenografted in mouse assessed as increase in life span at 2 mg/kg, iv dosed twice daily for 5 days
[8] = tested on: KB; experiment: Cytotoxicity against human KB cells; assay type: functional, cell-based

Compound: CC(C)=CCc1c2c(c(O)c3c1O[C@]14C(=C[C@@H]5C[C@H]1C(C)(C)O[C@@]4(C/C=C(/C)C(=O)O)C5=O)C3=O)C=CC(C)(C)O2
EC50 [1]: 0.36 µM

IC50 [2]: 2.5 µM
Compound: COc1cc2c(c(O)c1OC)C(=O)C[C@@H](c1ccc(O)cc1)O2

IC50 [2]: 2 µM
Compound: COc1cc([C@@H]2CC(=O)c3c(O)cc(O)cc3O2)ccc1OC(=O)C(C)C

IC50 [2]: 11.3 µM
Compound: COc1cc(-c2cc(=O)c3c(O)c(OC)c(O)cc3o2)ccc1O [JACEOSIDINE]

IC50 [3]: 1.3 µM
Compound: O=C1c2c(O)cc(O)cc2O[C@H](c2ccc(O)cc2)[C@H]1c1c(O)cc(O)c2c(=O)cc(-c3ccc(O)c(O)c3)oc12 [MORELLOFLAVONE]

IC50 [2]: 3.6 µM
Compound: COc1cc(O)c2c(c1)O[C@H](c1ccc(O)cc1)CC2=O [SAKURANETIN]

Compound: COC(=O)[C@H]1[C@@H](O)[C@@]2(O)c3c(OC)cc(O[C@@H]4O[C@@H]([C@H](O)CO)CO[C@H]4OC)cc3O[C@@]2(c2ccc(OC)cc2)[C@@H]1c1ccccc1 [SILVESTROL]
T/C [4]: 150% | bioavailability [5]: 100% | bioavailability [6]: 1.7% | T/C [7]: 129%

Compound: Oc1ccc([C@H]2c3c(O)cc4c(c3[C@@H]3c5c(O)cc6c(c5[C@H]2[C@@H]3c2ccc(O)cc2)[C@H](c2cc(O)cc(O)c2)[C@@H](c2ccc(O)cc2)O6)[C@@H](c2cc(O)cc(O)c2)[C@H](c2ccc(O)cc2)O4)cc1 [VATDIOSPYROIDOL]
EC50 [8]: 1 µg/mL (≈ 1.1 µM)
